According to patent US20120046362A1, “ANTIVIRAL AGENT AND CLEANSING AGENT” (priority 2009, published 2012):
Like-named read-outs stand apart in the source and are kept apart here.

Key:
[1] = test system: Influenza virus A/whistling swan/Shimane/499/83 (H5N3); assay type: cell-based, avian influenza virus; conditions: for effect on the avian influenza virus (ability to inactivate): Example 10, each potassium soap diluted to 0.035 M; for ability to inactivate the avian influenza virus, potassium versus sodium oleate soap: Example 4, 0.35 M oleate soap tested as in Example 2; for infection dose of the avian influenza virus reduced to / ability to inactivate: Example 9, diluted to 0.0035 mol/L with purified water
feline calicivirus = test: Inactivation ability against infectivity of feline calicivirus (TCID50 on CRFK cells); assay type: cell-based; conditions: for inactivation ability against the feline calicivirus, potassium versus sodium oleate soap: Example 4, 0.35 M oleate soap
[2] = Example 8, sample No. 19 versus surface-active agents other than soap (Table 4, 10.32 %)
[3] = Example 9, diluted to 0.0035 mol/L with purified water

CCCCC/C=C\C/C=C\CCCCCCCC(=O)[O-].[K+] [C18:2 (linoleate) soap]
effect on the avian influenza virus (ability to inactivate) [1]: excellent

CCCCCCCC/C=C\CCCCCCCC(=O)[O-].[Na+] [sodium oleate soap, sodium oleate]
ability to inactivate the avian influenza virus, potassium versus sodium oleate soap [1]: no difference | inactivation ability against the feline calicivirus, potassium versus sodium oleate soap (feline calicivirus): no difference

Sodium polyoxyethylene alkyl ether sulfate [compound 37]
virus inactivation ability / antiviral activity (avian influenza virus) [1, 2]: low antiviral activity | cytotoxicity (MDCK (+) cells): high cytotoxicity | virus inactivation ability / antiviral activity (feline calicivirus) (feline calicivirus; [2]): low antiviral activity | cytotoxicity (CRFK cells): high cytotoxicity

CCC=CCC=CCC=CCCCCCCCC(=O)[O-].[K+] [C18:3 (linolenate) soap]
effect on the avian influenza virus (ability to inactivate) [1]: weak

Polyoxyethylene sorbitan monooleate
infection dose of the avian influenza virus reduced to / ability to inactivate [1]: no ability to inactivate | infection dose of the feline calicivirus reduced to / ability to inactivate (feline calicivirus; [3]): no ability to inactivate

CCCCCCCC/C=C\CCCCCCCC(=O)N(C)CC(=O)O [oleoyl sarcosine]
infection dose of the avian influenza virus reduced to / ability to inactivate [1]: about one-thousandth | infection dose of the feline calicivirus reduced to / ability to inactivate (feline calicivirus): could not be reduced

CCCCCCCC/C=C\CCCCCCCCOS(=O)(=O)[O-].[Na+] [sodium oleyl sulfate]
infection dose of the avian influenza virus reduced to / ability to inactivate [1]: one-tenth or less | infection dose of the feline calicivirus reduced to / ability to inactivate (feline calicivirus): one-tenth or less

CCCCCCCC/C=C\CCCCCCCC(=O)[O-].[K+] [potassium oleate soap, potassium oleate]
ability to inactivate the avian influenza virus, potassium versus sodium oleate soap [1]: no difference | infection dose of the avian influenza virus reduced to / ability to inactivate [1]: excellent antiviral activity | effect on the avian influenza virus (ability to inactivate) [1]: excellent | inactivation ability against the feline calicivirus, potassium versus sodium oleate soap (feline calicivirus): no difference | infection dose of the feline calicivirus reduced to / ability to inactivate (feline calicivirus; [3]): excellent antiviral activity
